Laboratory results reported in patent US7897641B2, “Composition for the prevention and/or treatment of the cytotoxic effects induced by the use of immunosuppressive agents” (Sigma-Tau Industrie Farmaceutiche Riunite S.p.A., priority 2000, dated 2011).
Like-named read-outs stand apart in the source and are kept apart here.

How the values were obtained:
[1] = system: rats intoxicated with CCL4; assay: Protection against liver damage in rats intoxicated with CCl4; format: in vivo, rat; settings: treatment 300 mg/kg i.p. half an hour before CCl4; for Alanine aminotranferase activity (ALT): blood 24 h after CCl4 1 mL/kg of 20% solution, controls 12.5 ± 1.7; for Triglycerides: liver 24 h after CCl4, controls 6.5 ± 0.7
Description: CCl4 was administered at the dose of 1 mL/kg of a 20% solution in olive oil according to the technique described by Bernacchi (Bernacchi A. G., Brit. J. Exp. Pathol., 61:505, 1980).
Twenty-four hours after administration of CCl4, alanine aminotransferase was assayed as an indicator of enzymatic liver damage in blood from the animals thus treated, according to the colorimetric method described by Reitman (Reitman S., Am. J. Clin. Pathol., 28:56, […]), whereas from the livers taken from the same animals triglycerides were extracted with methanol and chloroform and assayed according to the method described by Kleir (Kleir, J. Biochem. Clin. Bohenescov., 9:243, 1999). The livers were then fixed with Carnon fixative and, after embedding in paraplast, were stained with haematoxylin and eosin.

perfused rat kidneys = assay: Renal hypertension induced by cyclosporin-A or tacrolimus in perfused rat kidneys; settings: treatment 5 mg/L each; for inhibition at 5 µg/mL: Rattus norvegicus
Text: (§1) Using the isolated rat kidney according to the technique described by Maack (Maack P., Kidney Int., 30:142, 1986) and Shure (Shure K. H., Delugers Arch., 35:4, 1975) and perfusing it with a solution containing cyclosporin-A, it is possible to detect the toxic reactions this substance induces at the renal level relating both to the renal cytomorphology, particularly at the tubular level, and to arteriolar and […] capillary vasoconstriction and the release of enzymes such as alanine aminopeptidase (AAP) and N-acetylglucosaminidase (NAG), the release of which is regarded as a sign of cell damage, as is the release of vasoactive substances such as histamine and endothelin-1.
(§2) In these tests a group of rats were used whose kidneys were isolated, after bilateral nephrectomy, and perfused according to the technique described by Schure and Maack.
(§3) The kidneys thus isolated were perfused by means of a pulsating pump both with a solution containing cyclosporin A or tacrolimus and with a solution containing propionyl L-carnitine or glycine or the two components in combination.
Arterial pressure on the perfused kidney was measured by means of a manometer connected up to the renal artery.

[2] = system: isolated, perfused rat kidneys; assay: Histamine and endothelin-1 release induced by cyclosporin-A or tacrolimus in isolated, perfused rat kidneys; settings: for % inhibition of release, endothelin-1 / % inhibition of release, histamine: treatment 5 mg/L each, after 1 min perfusion
Text: as §1, §2, §3
(§4) A […] method was used to measure both AAP and NAG on the renal venous flow. Histamine and endothelin-1 were measured with a colorimetric method or with RIA.

[3] = system: isolated, perfused rat kidneys; assay: Renal tubular damage evaluated by release of alanine aminopeptidase (AAP) and N-acetylglucosaminidase (NAG) in isolated, perfused rat kidneys; settings: treatment 5 mg/L each, after 5 min perfusion
Text: as §1, §2, §3, §4

[4] = system: isolated, perfused rat kidneys; assay: Glomerular and tubular morphometric abnormalities induced by cyclosporin-A in perfused rat kidney; settings: for Morphometric indices, tubular ID/ED / Morphometric indices, glomerular CD/BD: kidneys perfused with cyclosporin-A 2 mg/L, alone or with treatment 5 mg/L; for Morphometric indices, tubular ID/ED: control 0.36 ± 0.03; for Morphometric indices, glomerular CD/BD: control 0.93 ± 0.09
Text: as §2, §3
The parameters observed on the kidneys thus perfused were the capillary diameters (CD) and the Bowman's capsule diameters (BD) and equally the external and internal diameter (ID) and also the diameter at the level of the basal membrane (ED) of at least 20 proximal tubules.

[5] = system: isolated, perfused rat kidneys; assay: Reduction of renal ATP induced by cyclosporin-A; settings: for ATP: kidneys perfused with cyclosporin-A, alone or with treatment, control 6.70 ± 0.51
Description: as §2, §3
(§5) Lipid peroxidation was measured on samples of renal cortex as described by Longoni (Longoni B., Int. J. Tissue React., 21.7.1997-Lowry O. H., J. Biol. Bioch., 193:265, 1951) and ATP concentrations were determined according to the method described by Sumpio (Sumpio B. E., Am. J. Physiol., 247, PT2, 1047, 1984).

[6] = system: isolated, perfused rat kidneys; assay: Renal lipoperoxidation induced by cyclosporin-A (MDA + 4-HDA assay); settings: for MDA + 4-HDA: renal cortex, kidneys perfused with cyclosporin-A, alone or with treatment, control 2.1 ± 0.91
Description: as §2, §3, §5

[7] = system: isolated and perfused rat kidney; assay: Tests of cyclosporin-A toxicity in isolated and perfused rat kidney, overall assessment; settings: in words
Text: as §1, §2, §3

Sprague Dawley rats [8] = settings: rat, in vivo, 500 mg/kg
Sprague Dawley rats [9] = assay: Toxicology tests, acute i.p./oral and prolonged oral administration
[10] = induced by cyclosporin-A 2 mg/L

## ClC(Cl)(Cl)Cl [CCl4, carbon tetrachloride, reference compound]
[1]
  Alanine aminotranferase activity (ALT): 105.4 ± 3.8 U/L
  Triglycerides: 26.5 ± 0.11 mg/g

## NCC(=O)O [Glycine, glycine]
Perfused rat kidneys; 5 min, hypertension induced by cyclosporin-A 2 mg/L, 5 min, read-out: % inhibition of hypertensive effect after 5 min
  inhibition at 5 µg/mL: 6.3 ± 0.9%
Perfused rat kidneys; 5 min, hypertension induced by tacrolimus 400 μg/L, 5 min, read-out: % inhibition of hypertensive effect after 5 min
  inhibition at 5 µg/mL: 4.8 ± 7.1%
Perfused rat kidneys; 20 min, hypertension induced by cyclosporin-A 2 mg/L, 20 min, read-out: % inhibition of hypertensive effect after 20 min
  inhibition at 5 µg/mL: 6.8 ± 0.3%
Perfused rat kidneys; 20 min, hypertension induced by tacrolimus 400 μg/L, 20 min, read-out: % inhibition of hypertensive effect after 20 min
  inhibition at 5 µg/mL: 7.4 ± 0.9%
[2]; cyclosporin A, in words
  action on the release of vasoactive substances such as histamine and endothelin: not significantly detectable
[2]; [10]
  % inhibition of release, endothelin-1: 8.8 ± 0.9%
  % inhibition of release, histamine: 10.4 ± 1.1%
[2]; induced by tacrolimus 400 μg/L
  % inhibition of release, endothelin-1: 6.5 ± 0.7%
  % inhibition of release, histamine: 7.5 ± 0.8%
[3]; [10]
  % inhibition of release, AAP: 14.2 ± 0.9%
  % inhibition of release, NAG: 16.5 ± 0.6%
[3]; induced by tacrolimus 400 μg/L
  % inhibition of release, AAP: 18.5 ± 1.1%
  % inhibition of release, NAG: 17.2 ± 0.9%
[4]; in words
  action on the morphological damage induced by cyclosporin A: not significantly detectable
[4]
  Morphometric indices, tubular ID/ED: 0.66 ± 0.5
  Morphometric indices, glomerular CD/BD: 0.80 ± 0.5
[5]; cyclosporin A, in words
  action on the reduction in intracellular ATP: not significantly detectable
[5]
  ATP: 4.56 ± 0.49 nM/g tissue
[6]; in words
  effect on the lipid peroxidation activity induced by cyclosporin-A: detectable protective effect
[6]
  MDA + 4-HDA: 4.8 ± 0.41 nmol/mg protein
[1]
  Alanine aminotranferase activity (ALT): 90.2 ± 8.6 U/L
  Triglycerides: 22.2 ± 2.1 mg/g
[7]
  protection of the kidney against morphological/vascular and cellular biochemical damage induced by cyclosporin-A or tacrolimus: much less effective
Sprague Dawley rats [8]
  tolerability of prolonged oral administration: well tolerated
Sprague Dawley rats [9]; intraperitoneal, 0.5 g/kg each
  mortality or other sign of toxic effects: without any mortality being observed
Sprague Dawley rats [9]; oral, 1 g/kg each
  mortality or other sign of toxic effects: without any mortality being observed

## CCC(=O)O[C@H](CC(=O)[O-])C[N+](C)(C)C [Propionyl L-carnitine, propionyl L-carnitine]
Perfused rat kidneys; hypertension induced by cyclosporin-A 2 mg/L, 5 min
  % inhibition of hypertensive effect after 5 min: 18.2 ± 1.5%
Perfused rat kidneys; hypertension induced by cyclosporin-A 2 mg/L, 20 min
  % inhibition of hypertensive effect after 20 min: 28.4 ± 2.1%
Perfused rat kidneys; hypertension induced by tacrolimus 400 μg/L, 5 min
  % inhibition of hypertensive effect after 5 min: 22.5 ± 2.3%
Perfused rat kidneys; hypertension induced by tacrolimus 400 μg/L, 20 min
  % inhibition of hypertensive effect after 20 min: 30.7 ± 2.9%
[2]; [10]
  % inhibition of release, endothelin-1: 41.2 ± 3.8%
  % inhibition of release, histamine: 39.5 ± 4.1%
[2]; induced by tacrolimus 400 μg/L
  % inhibition of release, endothelin-1: 34.7 ± 2.7%
  % inhibition of release, histamine: 41.5 ± 3.9%
[3]; [10]
  % inhibition of release, AAP: 32.8 ± 3.1%
  % inhibition of release, NAG: 30.5 ± 2.6%
[3]; induced by tacrolimus 400 μg/L
  % inhibition of release, AAP: 35.1 ± 2.9%
  % inhibition of release, NAG: 30.8 ± 2.5%
[4]
  Morphometric indices, tubular ID/ED: 0.40 ± 0.06
  Morphometric indices, glomerular CD/BD: 0.86 ± 0.7
[5]
  ATP: 6.05 ± 0.61 nM/g tissue
[6]
  MDA + 4-HDA: 4.2 ± 0.39 nmol/mg protein
[1]
  Alanine aminotranferase activity (ALT): 75.8 ± 5.5 U/L
  Triglycerides: 18.8 ± 1.8 mg/g
[7]
  protection of the kidney against morphological/vascular and cellular biochemical damage induced by cyclosporin-A or tacrolimus: effective in protecting the kidney
Sprague Dawley rats [9]; intraperitoneal, 0.5 g/kg each
  mortality or other sign of toxic effects: without any mortality being observed
Sprague Dawley rats [9]; oral 500 mg/kg each for 20 days consecutively, weight gain and blood chemistry without toxic abnormalities
  tolerability of prolonged oral administration: well tolerated
Sprague Dawley rats [9]; oral, 1 g/kg each
  mortality or other sign of toxic effects: without any mortality being observed

## cyclosporin-A [reference compound]
[4]
  Morphometric indices, tubular ID/ED: 0.75 ± 0.08
  Morphometric indices, glomerular CD/BD: 0.78 ± 0.02
[5]
  ATP: 4.51 ± 0.41 nM/g tissue
[6]
  MDA + 4-HDA: 6.5 ± 0.52 nmol/mg protein
